Assay results published in ChEMBL document CHEMBL1201862, “PubChem BioAssay data set” (2004).
Activity calls are given as the source filed them.

Columns and labels:
Cytochrome P450 2C19 = Cytochrome P450 2C19 (Homo sapiens, UniProt P33261); assay: Cytochrome panel assay with activity outcomes. Panel member name: p450-cyp2c19 Compounds with AC50 equal or less than 10 uM are considered active; type: functional
[1] = tested on: Streptococcus sp. 'group A'; assay: growth inhibition of control SK(-) GAS strain, dose response, counter-screen for streptokinase expression inhibitor project, luminescence, kanamycin, BacTiterGlo, confirmation (AID 1900); type: functional, organism-based
Streptococcus = assay: Group A Streptococcus viability loss, dose response, counter-screen for streptokinase expression inhibitor project, luminescence, BacTiterGlo (AID 1915); type: functional, organism-based;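 further: potency for reduction of bacterial viability or growth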
Streptokinase A = target: T1, Streptokinase A (Streptococcus pyogenes serotype M1, UniProt P10520); assay: S. pyogenes streptokinase expression inhibitors, potency, dose response, plasminogen activation absorbance, OD405 (AID 1914); type: functional, Streptococcus pyogenes M1 GAS;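 further: secreted streptokinase activity via plasminogen activation per viability signal from cell pellet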
T1 sequence (P10520 whole entry): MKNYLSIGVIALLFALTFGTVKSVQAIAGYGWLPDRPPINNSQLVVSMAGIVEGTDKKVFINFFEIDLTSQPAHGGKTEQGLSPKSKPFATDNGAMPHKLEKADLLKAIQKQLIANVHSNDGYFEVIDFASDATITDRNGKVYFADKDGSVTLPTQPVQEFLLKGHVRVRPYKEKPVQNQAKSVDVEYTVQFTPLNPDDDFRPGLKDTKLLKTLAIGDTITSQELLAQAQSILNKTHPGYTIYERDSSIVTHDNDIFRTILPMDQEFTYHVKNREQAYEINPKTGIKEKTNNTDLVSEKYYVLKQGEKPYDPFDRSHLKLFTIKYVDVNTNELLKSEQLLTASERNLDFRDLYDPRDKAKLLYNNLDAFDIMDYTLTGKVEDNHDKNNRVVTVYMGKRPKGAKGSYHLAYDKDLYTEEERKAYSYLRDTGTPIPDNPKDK

[2] = cytotoxicity toward NIH3T3 fibroblasts, dose response, counter-screen, cell-based, ATP luminescence, mouse fibroblasts (AID 2010); type: functional;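 further: cells exposed to compound for about 90 hours before reading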
[3] = inhibitors of intracellular T. cruzi replication, confirmation, NIH3T3 host cells, beta-gal luminescence (AID 2044); type: functional, cell-based;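 further: intracellular parasites grown in NIH/3T3 mouse fibroblasts as host cells; luminescent beta-galactosidase reporter signal from transgenic T. cruzi replicating inside host cells; inhibitors lower the luminescence signal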
Cytochrome P450 3A4 = Cytochrome P450 3A4 (Homo sapiens, UniProt P08684);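 further: CYP3A4 tested as one member of a cytochrome P450 panel screen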
H4 = assay: Luminescence Cell-Based Dose Response HTS to Identify Activators of 5'UTR Stem-Loop Driven Prion Protein mRNA Translation in H4 Neuroglioblastoma Cells. [Related pubchem assays: 1829 (Project Summary), 1814 (Primary HTS)]; type: functional; conditions: Homo sapiens
Cytochrome P450 2D6 = Cytochrome P450 2D6 (Homo sapiens, UniProt P10635);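 further: CYP2D6 member of a cytochrome P450 panel assay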
[4] = Luminescence Cell-Based Dose Response HTS to Identify Activators of Luciferase Translation or Activity in H4 […] Cells. [Related pubchem assays: 1829 (Project Summary), 1814 (Primary HTS)]; type: functional

Cytochrome P450 2C19, sequence (P33261 whole entry): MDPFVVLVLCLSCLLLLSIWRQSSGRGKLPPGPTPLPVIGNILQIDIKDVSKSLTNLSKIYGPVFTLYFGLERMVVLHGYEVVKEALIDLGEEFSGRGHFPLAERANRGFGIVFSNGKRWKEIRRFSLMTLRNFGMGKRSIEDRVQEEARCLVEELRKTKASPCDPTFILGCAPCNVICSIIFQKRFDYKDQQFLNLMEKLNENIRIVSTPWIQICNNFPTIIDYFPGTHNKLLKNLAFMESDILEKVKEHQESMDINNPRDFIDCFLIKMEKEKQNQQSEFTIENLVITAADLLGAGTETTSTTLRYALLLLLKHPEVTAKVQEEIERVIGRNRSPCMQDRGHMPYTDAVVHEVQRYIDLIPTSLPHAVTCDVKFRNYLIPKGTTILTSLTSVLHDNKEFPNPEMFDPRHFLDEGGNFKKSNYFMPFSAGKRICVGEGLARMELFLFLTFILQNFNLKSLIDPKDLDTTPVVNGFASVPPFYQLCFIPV
Cytochrome P450 3A4, sequence (P08684 whole entry): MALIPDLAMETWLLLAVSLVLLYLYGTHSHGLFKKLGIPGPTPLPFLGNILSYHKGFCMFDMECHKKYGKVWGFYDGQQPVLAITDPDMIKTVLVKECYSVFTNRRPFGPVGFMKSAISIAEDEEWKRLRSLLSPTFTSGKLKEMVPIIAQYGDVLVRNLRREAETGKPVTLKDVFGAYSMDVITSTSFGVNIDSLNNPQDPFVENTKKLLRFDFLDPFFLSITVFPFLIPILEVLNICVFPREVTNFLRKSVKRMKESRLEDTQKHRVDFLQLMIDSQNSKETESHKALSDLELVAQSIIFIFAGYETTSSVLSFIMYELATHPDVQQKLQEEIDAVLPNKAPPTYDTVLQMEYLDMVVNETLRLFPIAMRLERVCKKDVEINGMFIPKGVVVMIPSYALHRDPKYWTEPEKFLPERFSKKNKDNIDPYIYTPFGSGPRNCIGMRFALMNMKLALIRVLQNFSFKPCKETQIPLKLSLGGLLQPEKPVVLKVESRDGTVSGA
Cytochrome P450 2D6, sequence (P10635 whole entry): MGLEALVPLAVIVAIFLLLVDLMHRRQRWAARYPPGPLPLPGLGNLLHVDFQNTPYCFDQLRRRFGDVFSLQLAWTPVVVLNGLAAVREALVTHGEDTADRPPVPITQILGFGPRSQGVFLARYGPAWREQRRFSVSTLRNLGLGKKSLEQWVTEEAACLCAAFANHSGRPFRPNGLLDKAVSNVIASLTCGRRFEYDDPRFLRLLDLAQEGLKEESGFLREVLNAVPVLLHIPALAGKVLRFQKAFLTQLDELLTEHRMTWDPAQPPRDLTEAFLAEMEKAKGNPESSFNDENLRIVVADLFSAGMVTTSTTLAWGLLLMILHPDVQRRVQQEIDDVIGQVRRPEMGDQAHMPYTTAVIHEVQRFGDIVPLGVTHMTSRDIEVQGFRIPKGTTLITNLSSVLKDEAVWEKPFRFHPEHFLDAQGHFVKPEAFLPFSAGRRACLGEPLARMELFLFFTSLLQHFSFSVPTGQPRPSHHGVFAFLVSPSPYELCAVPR

O=c1c(-c2ccc(Cl)cc2)nc2cnc(N3CCNCC3)nc2n1Cc1cccs1
AC50 (Cytochrome P450 2C19; read-out: AC50): 25.1 µM (inconclusive)

C[C@H]1CC[C@@]2(NC1)O[C@@H]1C[C@H]3[C@@H]4CC[C@@H]5C[C@@H](O)CC[C@@]5(C)[C@@H]4CC[C@]3(C)[C@@H]1[C@@H]2C
AC50 (Cytochrome P450 2C19): inconclusive

COc1ccc(CN(C)S(=O)(=O)c2ccc3c(c2)OCCO3)cc1
EC50 [1]: > 150 µM (not active)
EC50 (Streptococcus): > 150 µM (not active)
EC50 (Streptokinase A): > 150 µM (not active)

C=C(C)CNC(=S)NNC(=O)CCn1c2ccc(Cl)cc2c2cc(Cl)ccc21
EC50 (Streptokinase A): > 150 µM (not active)

O=C(CSc1cccc[n+]1[O-])c1cc2ccccc2o1
EC50 [2]: > 60 µM (not active)
EC50 [3]: 11.3 µM (active)

COc1ccc(-n2c(=O)c(C)nc3cnc(N(C)C)nc32)cc1
AC50 (Cytochrome P450 3A4): 20 µM (inconclusive)

OC(COCCC12CC3CC(CC(C3)C1)C2)CN1CCCCC1 (configuration not stated)
EC50 [2]: > 60 µM (not active)
EC50 [3]: 0.228 µM (active)

CN(C)/C=N/c1cnc(C(=O)c2ccc(Cl)cc2)n1C
EC50 (H4): 0.52 µM (active)

Cc1ccc(C(=O)N(C)c2ccc(OCC(=O)N3c4ccc(C)cc4C4CN(C)CCC43)cc2)cc1 (configuration not stated)
EC50 [2]: > 60 µM (not active)
EC50 [3]: 0.527 µM (active)

CC(CCc1ccccc1)N1CCN(Cc2ccccc2)CC1 (configuration not stated)
EC50 [2]: 10.2 µM (active)
EC50 [3]: 0.101 µM (active)

Oc1ccc(Cc2cc(Cl)cc(Cl)c2O)cc1Cl
AC50 (Cytochrome P450 3A4): 3.98 µM (inconclusive)
AC50 (Cytochrome P450 2D6): 7.94 µM (inconclusive)

CN(C)c1ccc(-c2cncnc2NCc2ccccc2)cc1
AC50 (Cytochrome P450 2D6): 39.8 µM (inconclusive)

COC(=O)C1CCN(CC(=O)Nc2cc(Cl)ccc2OC)CC1
EC50 [2]: > 30 µM (not active)
EC50 [3]: 4.18 µM (active)

CN(Cc1ccccc1)C(=O)C1CCCN(Cc2cccc(Cl)c2)C1 (configuration not stated)
EC50 [2]: > 60 µM (not active)
EC50 [3]: 0.11 µM (active)

CCSC(=N)Nc1ccc(C(F)(F)F)cc1
AC50 (Cytochrome P450 3A4): 39.8 µM (inconclusive)
AC50 (Cytochrome P450 2C19; read-out: AC50): 20 µM (inconclusive)

CCOC(=O)c1c2c(n3ccccc13)C(=O)c1ccccc1C2=O
AC50 (Cytochrome P450 3A4): 3.16 µM (inconclusive)

Cc1[nH]c2ccccc2c1C(=O)CSc1nc2ccccc2c(=O)n1CCCN1CCOCC1
EC50 [4]: > 120 µM (not active)
EC50 (H4): > 120 µM (not active)

COC(=O)Cc1c[nH]c2cccc(OCC(O)CN(Cc3ccc([N+](=O)[O-])cc3)C(C)(C)C)c12 (configuration not stated)
EC50 [2]: > 60 µM (not active)
EC50 [3]: 2.83 µM (active)

O=S(=O)(Cc1cc(Sc2ccc(Cl)cc2)nc(-c2ccccc2)n1)c1ccccc1
EC50 [2]: > 60 µM (not active)
EC50 [3]: 2.93 µM (active)

OC(COCC1COc2ccccc2O1)CN1CCc2ccccc2C1 (configuration not stated)
AC50 (Cytochrome P450 3A4): 17.8 µM (inconclusive)

CCCCN1C(=O)NC(=O)/C(=C(\C)Nc2ccc(OCC)cc2)C1=O
EC50 [1]: 8.66 µM (active)
EC50 (Streptococcus): 21.5 µM (active)
EC50 (Streptokinase A): > 150 µM (not active)

CNC(=O)c1sc(SC)cc1-c1ccc(Cl)cc1
AC50 (Cytochrome P450 2D6): 25.1 µM (inconclusive)

CCOC(=O)C1CCCN(c2ncnc3c2cnn3-c2cccc(C)c2)C1 (configuration not stated)
AC50 (Cytochrome P450 3A4): 28.2 µM (inconclusive)
AC50 (Cytochrome P450 2C19; read-out: AC50): 20 µM (inconclusive)

O=S(=O)(Nc1ccc(N=Nc2ccc(O)c3ccccc23)cc1)c1ccccc1
EC50 [1]: 7.71 µM (active)
EC50 (Streptococcus): 41.5 µM (active)
EC50 (Streptokinase A): 18.7 µM (active)

Cc1cc2nc(CCN(Cc3cccnc3)C(S)=Nc3ccc(F)cc3)[nH]c2cc1C
EC50 [2]: > 30 µM (not active)
EC50 [3]: 0.844 µM (active)

COC(=O)Cc1c(OC)ccn(CCc2c[nH]c3ccccc23)c1=O
EC50 (H4): > 120 µM (not active)

COc1ccc(-c2ccc(C(=S)N3CCN(C(C)=O)CC3)o2)cc1
AC50 (Cytochrome P450 2D6): 28.2 µM (inconclusive)

O=C(CCc1nnc(CCCCc2ccccc2)o1)NCCc1cccnc1
EC50 [2]: > 60 µM (not active)
EC50 [3]: 2.27 µM (active)

CC(=O)Nc1ccc(S(=O)(=O)N2CCC(N(C)CCC(C)C)CC2)cc1
AC50 (Cytochrome P450 2C19; read-out: AC50): 25.1 µM (inconclusive)

Fc1ccc(Br)cc1C1C=C(c2ccc(Br)s2)Nc2ncnn21 (configuration not stated)
EC50 [1]: 4.65 µM (active)
EC50 (Streptococcus): 24.3 µM (active)
EC50 (Streptokinase A): > 150 µM (not active)

CC(C)N1CCc2c(sc(NC(=O)CCS(=O)(=O)c3ccccc3)c2C#N)C1
EC50 [1]: > 150 µM (not active)
EC50 (Streptococcus): > 150 µM (not active)
EC50 (Streptokinase A): > 150 µM (not active)

COCCNc1nc(-c2c(C)noc2C)nc2ccccc12
AC50 (Cytochrome P450 3A4): 15.8 µM (inconclusive)

COc1cc([N+](=O)[O-])c(N2CCOCC2)c([N+](=O)[O-])c1OC
EC50 [2]: > 60 µM (not active)
EC50 [3]: 7.53 µM (active)

C=CCNC(=O)c1ccccc1NC(=O)c1ccc(Cl)c(S(=O)(=O)Nc2cc(C)ccc2C)c1
EC50 [1]: 24.8 µM (active)
EC50 (Streptococcus): > 150 µM (not active)
EC50 (Streptokinase A): 41.7 µM (active)

COc1ccc(C(CNC(=O)c2cccc(S(=O)(=O)Nc3ccccc3Cl)c2)N2CCOCC2)cc1 (configuration not stated)
EC50 (Streptococcus): 104 µM (active)
EC50 (Streptokinase A): > 150 µM (not active)

Cc1ccc(-c2onc3ccc(C4OCCO4)cc23)cc1
EC50 [4]: 28.4 µM (active)
EC50 (H4): 25 µM (active)

COc1ccccc1CNc1ncncc1-c1ccc(C(=O)N(C)C)cc1
AC50 (Cytochrome P450 2D6): 39.8 µM (inconclusive)

c1ccc(COc2ccccc2CNCc2cccnc2)cc1
EC50 [2]: > 60 µM (not active)
EC50 [3]: 8.11 µM (active)

CCOC(=O)CC(NC(=O)c1cccs1)c1ccc(OCC)cc1 (configuration not stated)
AC50 (Cytochrome P450 2D6): 14.1 µM (inconclusive)

O=c1c(-c2ccc(F)cc2)nc2cnc(N3CCNCC3)nc2n1C1CC1
AC50 (Cytochrome P450 2C19; read-out: AC50): 39.8 µM (inconclusive)

COc1ccc(/C=C2\Sc3ccc(C(=O)N4CCCC4)cc3N(C)C2=O)cc1OC
EC50 [1]: 0.555 µM (active)
EC50 (Streptococcus): 8.27 µM (active)
EC50 (Streptokinase A): > 150 µM (not active)

COCCn1c(=O)c(-c2cccs2)nc2cnc(Oc3ccc(OC)cc3)nc21
AC50 (Cytochrome P450 2C19; read-out: AC50): 15.8 µM (inconclusive)

COc1ccc(C(=O)NCC(c2ccc(F)cc2)N2CCOCC2)cc1S(=O)(=O)N1CCCC1 (configuration not stated)
AC50 (Cytochrome P450 2D6): 15.8 µM (inconclusive)

CC(C)C[C@@H](N)C(=O)Nc1ccc2ccccc2c1
AC50 (Cytochrome P450 3A4): 2.51 µM (inconclusive)
AC50 (Cytochrome P450 2D6): 3.16 µM (inconclusive)
AC50 (Cytochrome P450 2C19; read-out: AC50): 2.51 µM (inconclusive)

c1ccc(COc2ccc(-c3csnn3)cc2)cc1
EC50 [4]: 0.11 µM (active)
EC50 (H4): 1.64 µM (active)

CCC(C)C(=O)N1CCCC(c2nc(-c3cccs3)no2)C1 (configuration not stated)
EC50 [4]: > 120 µM (not active)
EC50 (H4): 71.6 µM (active)

O=[N+]([O-])c1cccc(-c2nc(-c3ccccc3)c(-c3cccs3)[nH]2)c1
AC50 (Cytochrome P450 2D6): 4.47 µM (inconclusive)

CCc1ccc(Oc2nc([N+](=O)[O-])nn2C)cc1
EC50 [2]: > 30 µM (not active)
EC50 [3]: 0.438 µM (active)

Cc1ccc(CN(C)CCc2ccccn2)cc1
EC50 [2]: > 60 µM (not active)
EC50 [3]: 0.309 µM (active)

Cc1sc2c(c1C)c(=O)n(-c1ccccc1)c1nnc(C)n21
AC50 (Cytochrome P450 2C19; read-out: AC50): 8.91 µM (inconclusive)

CCN1CCN(c2ccc(S(=O)(=O)N3CCOCC3)cc2NC(=O)c2ccc(Cl)s2)CC1
EC50 [2]: > 30 µM (not active)
EC50 [3]: 0.588 µM (active)

Cc1ccc(C(=N)NOC(=O)CSc2ccccc2)cc1
EC50 [4]: 0.514 µM (active)

CNc1ncnc2ccc(-c3ccccc3CN(C)C)cc12
AC50 (Cytochrome P450 2C19; read-out: AC50): 20 µM (inconclusive)
